# Laboratory results as given in patent US20100298141A1, “SUBSTITUTED PYRIDINE N-OXIDE HERBICIDES” (E. I. DU PONT DE NEMOURS AND COMPANY, priority 2007, published 2010).
# Experiments:
# redroot pigweed = assay: Test A pre-/postemergence greenhouse test; type: in vivo, Amaranthus retroflexus; conditions: for Pigweed plant response rating: 0 to 100 scale; for Plant response rating, Pigweed: 0 to 100 scale where 0 is no effect and 100 is complete control
# In short: (§1)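 Sowing in loam/sand; same-day pre (directed soil spray) and post (foliar, 1–2 leaf, 2–10 cm) treatment with surfactant-containing non-phytotoxic solvent formulation; ~10 days in greenhouse; eye-scored injury against untreated plants.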
# corn = assay: Test A pre-/postemergence greenhouse test; type: in vivo, Zea mays; conditions: for Corn plant response rating: 0 to 100 scale; for Plant response rating, Corn: 0 to 100 scale where 0 is no effect and 100 is complete control
# In short: as §1
# blackgrass = assay: Test C pre-/postemergence test; type: in vivo, Alopecurus myosuroides; conditions: for Plant response rating (0 to 100), Blackgrass: 250 g ai/ha
# In short: (§2)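 Test chemicals were formulated with surfactant in a non-phytotoxic solvent and sprayed both on freshly planted seeds (preemergence) and on 1- to 4-leaf plants of 2–18 cm (postemergence). Flooded-paddy pots received compound directly into 3 cm of standing water, maintained for the test.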
# wheat = assay: Test C pre-/postemergence test; type: in vivo, Triticum aestivum
# In short: as §2
# wild oat = assay: Test C pre-/postemergence test; type: in vivo, Avena fatua
# In short: as §2
# catchweed bedstraw = assay: Test C pre-/postemergence test; type: in vivo, Galium aparine; conditions: for Plant response rating (0 to 100), Galium: 250 g ai/ha
# In short: as §2
# bermudagrass = assay: Test C pre-/postemergence test; type: in vivo, Cynodon dactylon; conditions: for Plant response rating (0 to 100), Bermudagrass: 250 g ai/ha
# In short: as §2
# Surinam grass = assay: Test C pre-/postemergence test; type: in vivo, Brachiaria decumbens
# In short: as §2
# crabgrass = assay: Test C pre-/postemergence test; type: in vivo, Digitaria sanguinalis; conditions: for Plant response rating (0 to 100), Crabgrass, Large: 250 g ai/ha
# In short: as §2
# kochia = assay: Test C pre-/postemergence test; type: in vivo, Kochia scoparia
# In short: as §2
# eastern black nightshade = assay: Test C pre-/postemergence test; type: in vivo, Solanum ptycanthum
# In short: as §2
# pigweed = assay: Test C pre-/postemergence test; type: in vivo, Amaranthus retroflexus
# In short: as §2
# [1] = tested on: common (oilseed) sunflower; assay: Test C pre-/postemergence test; type: in vivo, Helianthus annuus
# In short: as §2
# velvetleaf = assay: Test C pre-/postemergence test; type: in vivo, Abutilon theophrasti
# In short: as §2
# rice = assay: Test C flooded paddy test; type: in vivo, Oryza sativa; conditions: Flood
# In short: (§3)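 Flooded 3 cm over soil; compound into paddy water; depth kept constant. Greenhouse 13–15 d.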
# duck salad = assay: Test C flooded paddy test; type: in vivo, Heteranthera limosa; conditions: Flood
# In short: as §3
# barnyardgrass = assay: Test C flooded paddy test; type: in vivo, Echinochloa crus-galli; conditions: Flood
# In short: as §3
# [2] = Postemergence, 125 g ai/ha, 0 is no effect, 100 is complete control
# [3] = Postemergence, 500 g ai/ha, 0 is no effect, 100 is complete control
# [4] = Preemergence, 125 g ai/ha, 0 no effect, 100 complete control
# [5] = 62 g ai/ha, Preemergence, scale 0 to 100
# [6] = Preemergence, 31 g ai/ha, scale 0 to 100 (0 no effect, 100 complete control)
# [7] = preemergence, 125 g ai/ha, scale 0 (no effect) to 100 (complete control)
# [8] = 31 g ai/ha, scale 0 to 100 (0 no effect, 100 complete control)
# [9] = 62 g ai/ha, scale 0 to 100, 0 no effect, 100 complete control, 13 to 15 days
# [10] = 125 g ai/ha, scale 0 to 100, 0 no effect, 100 complete control, 13 to 15 days
# [11] = 250 g ai/ha, scale 0 to 100 (0 no effect, 100 complete control)
# [12] = 31 g ai/ha, Preemergence, scale 0 to 100
# [13] = 62 g ai/ha, preemergence, scale 0 (no effect) to 100 (complete control)
structure (smiles),measurement,setting,value
Cc1cc[n+]([O-])c(S(=O)(=O)Cc2c(C(F)(F)F)nn(C)c2Cl)c1 [Compound 19],Pigweed plant response rating,redroot pigweed; [2],10
same,Pigweed plant response rating,redroot pigweed; [3],30
same,Pigweed plant response rating,redroot pigweed; [4],100
same,"Plant response rating, Pigweed","redroot pigweed; Preemergence, 500 g ai/ha",100
same,Corn plant response rating,corn; [2],0
same,Corn plant response rating,corn; [3],50
same,Corn plant response rating,corn; [4],30
same,"Plant response rating, Corn","corn; Preemergence, 500 g ai/ha",50
same,Blackgrass plant response rating,blackgrass; [5],0
same,"Plant response rating, Blackgrass",blackgrass; [6],0
same,"Plant response rating (0 to 100), Blackgrass",blackgrass; Preemergence,100
same,Blackgrass plant response rating,blackgrass; [7],0
same,Wheat plant response rating,wheat; [5],0
same,"Plant response rating, Wheat",wheat; [6],0
same,"Oat, Wild plant response rating",wild oat; [5],0
same,"Plant response rating, Oat, Wild",wild oat; [6],0
same,Galium plant response rating,catchweed bedstraw; [5],100
same,"Plant response rating, Galium",catchweed bedstraw; [6],85
same,"Plant response rating (0 to 100), Galium",catchweed bedstraw; Preemergence,100
same,Bermudagrass plant response rating,"bermudagrass; 62 g ai/ha, Preemergence, scale 0 to 100 (0 no effect, 100 complete control)",100
same,"Plant response rating, Bermudagrass",bermudagrass; [6],85
same,"Plant response rating (0 to 100), Bermudagrass",bermudagrass; Preemergence,100
same,Bermudagrass plant response rating,bermudagrass; [7],100
same,Surinam Grass plant response rating,Surinam grass; [5],50
same,"Plant response rating, Surinam Grass",Surinam grass; [6],0
same,"Crabgrass, Large plant response rating",crabgrass; [5],100
same,"Plant response rating, Crabgrass, Large",crabgrass; [6],98
same,"Plant response rating (0 to 100), Crabgrass, Large",crabgrass; Preemergence,100
same,Kochia plant response rating,kochia; [5],100
same,"Plant response rating, Kochia",kochia; [6],0
same,Nightshade plant response rating,eastern black nightshade; [5],100
same,"Plant response rating, Nightshade",eastern black nightshade; [6],85
same,Pigweed plant response rating,pigweed; [5],100
same,"Plant response rating, Pigweed",pigweed; [6],80
same,Sunflower plant response rating,[1]; [5],0
same,"Plant response rating, Sunflower",[1]; [6],0
same,Velvetleaf plant response rating,velvetleaf; [5],0
same,"Plant response rating, Velvetleaf",velvetleaf; [6],0
same,"Plant response rating, Rice",rice; [8],0
same,"Plant response rating, Rice",rice; [9],0
same,"Plant response rating, Rice",rice; [10],30
same,"Plant response rating, Rice",rice; [11],70
same,"Plant response rating, Ducksalad",duck salad; [8],0
same,"Plant response rating, Ducksalad",duck salad; [9],0
same,"Plant response rating, Ducksalad",duck salad; [10],0
same,"Plant response rating, Ducksalad",duck salad; [11],75
same,"Plant response rating, Barnyardgrass",barnyardgrass; [8],0
same,"Plant response rating, Barnyardgrass",barnyardgrass; [9],0
same,"Plant response rating, Barnyardgrass",barnyardgrass; [10],30
same,"Plant response rating, Barnyardgrass",barnyardgrass; [11],75
Cn1nc(C(F)(F)F)c(CS(=O)(=O)c2cccc[n+]2[O-])c1Cl [Compound 9],Pigweed plant response rating,redroot pigweed; [2],10
same,Pigweed plant response rating,redroot pigweed; [3],60
same,Pigweed plant response rating,redroot pigweed; [4],100
same,"Plant response rating, Pigweed","redroot pigweed; Preemergence, 500 g ai/ha",100
same,Corn plant response rating,corn; [2],20
same,Corn plant response rating,corn; [3],60
same,Corn plant response rating,corn; [4],40
same,"Plant response rating, Corn","corn; Preemergence, 500 g ai/ha",60
same,Blackgrass plant response rating,blackgrass; [12],0
same,Blackgrass plant response rating,blackgrass; [13],50
same,"Plant response rating (0 to 100), Blackgrass",blackgrass; Preemergence,95
same,Blackgrass plant response rating,blackgrass; [7],50
same,Wheat plant response rating,wheat; [13],30
same,"Plant response rating (0 to 100), Wheat","wheat; Preemergence, 250 g ai/ha",70
same,Wheat plant response rating,wheat; [7],45
same,"Oat, Wild plant response rating",wild oat; [12],0
same,"Oat, Wild plant response rating",wild oat; [13],0
same,"Plant response rating (0 to 100), Oat, Wild","wild oat; Preemergence, 250 g ai/ha",55
same,"Oat, Wild plant response rating",wild oat; [7],40
same,Galium plant response rating,catchweed bedstraw; [12],0
same,Galium plant response rating,catchweed bedstraw; [13],100
same,"Plant response rating (0 to 100), Galium",catchweed bedstraw; Preemergence,100
same,Galium plant response rating,catchweed bedstraw; [7],100
same,Bermudagrass plant response rating,bermudagrass; [12],98
same,"Plant response rating (0 to 100), Bermudagrass",bermudagrass; Preemergence,100
same,Bermudagrass plant response rating,bermudagrass; [7],100
same,"Plant response rating (0 to 100), Surinam Grass","Surinam grass; Preemergence, 250 g ai/ha",100
same,Surinam Grass plant response rating,Surinam grass; [7],85
same,"Crabgrass, Large plant response rating",crabgrass; [12],100
same,"Plant response rating (0 to 100), Crabgrass, Large",crabgrass; Preemergence,100
same,"Crabgrass, Large plant response rating",crabgrass; [7],100
same,Kochia plant response rating,kochia; [12],0
same,"Plant response rating (0 to 100), Kochia","kochia; Preemergence, 250 g ai/ha",100
same,Kochia plant response rating,kochia; [7],100
same,Nightshade plant response rating,eastern black nightshade; [12],80
same,Nightshade plant response rating,eastern black nightshade; [7],100
same,Pigweed plant response rating,pigweed; [12],100
same,"Plant response rating (0 to 100), Pigweed","pigweed; Preemergence, 250 g ai/ha",100
same,Pigweed plant response rating,pigweed; [7],100
same,"Plant response rating (0 to 100), Sunflower","[1]; Preemergence, 250 g ai/ha",70
same,Sunflower plant response rating,[1]; [7],5
same,"Plant response rating (0 to 100), Velvetleaf","velvetleaf; Preemergence, 250 g ai/ha",40
same,Velvetleaf plant response rating,velvetleaf; [7],0
same,"Plant response rating, Rice",rice; [8],10
same,"Plant response rating, Rice",rice; [9],40
same,"Plant response rating, Rice",rice; [10],70
same,"Plant response rating, Rice",rice; [11],70
same,"Plant response rating, Ducksalad",duck salad; [8],0
same,"Plant response rating, Ducksalad",duck salad; [9],65
same,"Plant response rating, Ducksalad",duck salad; [10],85
same,"Plant response rating, Ducksalad",duck salad; [11],90
same,"Plant response rating, Barnyardgrass",barnyardgrass; [8],0
same,"Plant response rating, Barnyardgrass",barnyardgrass; [9],60
same,"Plant response rating, Barnyardgrass",barnyardgrass; [10],85
same,"Plant response rating, Barnyardgrass",barnyardgrass; [11],90
